Holding throughout (assay type): functional
Test [1] concerns Athalia rosae ruficornis. Nature of the test: Induction of feeding in larvae of Athalia rosae ruficornis on leaves of Ajuga decumbens assessed as feeding response measured for 10 seconds relative to control. Details: concentration or dose not given beside the values.
Test [2] concerns Athalia rosae ruficornis. Put plainly: Induction of feeding in larvae of Athalia rosae ruficornis on leaves of Ajuga decumbens assessed as feeding response at 10 ug/64 mm'2 of filter paper measured for 10 seconds.
In test [3] the test system is Athalia rosae ruficornis. Put plainly: Induction of feeding in larvae of Athalia rosae ruficornis on leaves of Ajuga decumbens assessed as feeding response at 0.1 ug/64 mm'2 of filter paper measured for 10 seconds.

SMILES strings stand for the structures.

On to `C/C=C(\C)C(=O)O[C@@H](C[C@@]1(C)[C@H](C)C[C@H](OC(C)=O)[C@]2(COC(C)=O)[C@@H]1[C@H](OC(=O)/C(C)=C/C)CC[C@]21CO1)C1=CC(=O)OC1` [AJUGATAKASIN A], for which the Activity in the test on Athalia rosae ruficornis [1] turned out to be 28.4%; in the test with Athalia rosae ruficornis [2], 0%; with Athalia rosae ruficornis [3] it was 0%.

On to `C/C=C(\C)C(=O)O[C@@H](C[C@@]1(C)[C@H](C)C[C@H](OC(C)=O)[C@]2(COC(C)=O)[C@@H]1[C@H](OC(=O)[C@@H](C)CC)CC[C@]21CO1)C1=CC(=O)OC1` [AJUGAMARIN H1], for which the Activity came to 7% in the test on Athalia rosae ruficornis [1], 0% with Athalia rosae ruficornis [2] and 0% in the test with Athalia rosae ruficornis [3].

Consider `C/C=C(\C)C(=O)O[C@@H]1CC[C@]2(CO2)[C@]2(COC(C)=O)[C@@H](OC(C)=O)C[C@@H](C)[C@](C)(C[C@H](O)C3=CC(=O)OC3)[C@@H]12` [AJUGAMARIN A1], for which the Activity is given as 46.3% in the test with Athalia rosae ruficornis [1], 0% in the test on Athalia rosae ruficornis [2] and 0% in the test with Athalia rosae ruficornis [3].

With `CCC(C)C(=O)O[C@@H]1CC[C@]2(CO2)[C@]2(COC(C)=O)[C@@H](OC(C)=O)C[C@@H](C)[C@](C)(C[C@H](O)C3=CC(=O)OC3)[C@@H]12` (stereo partly specified) [DIHYDROAJUGAMARIN], the Activity stood at 8.6% in the test on Athalia rosae ruficornis [1], 0% with Athalia rosae ruficornis [2] and 0% in the test with Athalia rosae ruficornis [3].

On to `CC[C@H](C)C(=O)O[C@@H](C[C@@]1(C)[C@H](C)C[C@H](OC(C)=O)[C@]2(COC(C)=O)[C@@H]1[C@H](OC(=O)[C@@H](C)CC)CC[C@]21CO1)C1=CC(=O)OC1` [AJUGATAKASIN B], for which the Activity with Athalia rosae ruficornis [1] was found to be 0.4%; in the test on Athalia rosae ruficornis [2] it was 0%; with Athalia rosae ruficornis [3], 0%.

On to `CC[C@H](C)C(=O)O[C@H]1[C@H](O)C[C@@H]2[C@@](C)([C@@H]3C[C@H]4C=CO[C@H]4O3)[C@H](C)C[C@H](OC(C)=O)[C@@]2(COC(C)=O)[C@@]12CO2` [CLERODENDRIN D], for which the Activity with Athalia rosae ruficornis [1] is listed as 0.08%; with Athalia rosae ruficornis [2], 100%; in the test with Athalia rosae ruficornis [3] it was 88%.

As to `C/C=C(\C)C(=O)O[C@@H]1CC[C@]2(CO2)[C@]2(COC(C)=O)[C@@H](OC(C)=O)C[C@@H](C)[C@](C)(C[C@H](OC(=O)[C@@H](C)CC)C3=CC(=O)OC3)[C@@H]12` [AJUGAMARIN G1], the figures for the Activity in the test with Athalia rosae ruficornis [1], in the test with Athalia rosae ruficornis [2] and in the test on Athalia rosae ruficornis [3] were 9.3%, 0% and 0%, respectively.

The values are drawn from ChEMBL document CHEMBL3045983, “Ajugatakasins A and B, New Diterpenoids fromAjuga decumbens, and Feeding Stimulative Activity of Related Neoclerodane Analogs toward the Turnip Sawfly” (1997).
